Experimental data: PMC8876603, “New Blood Coagulation Factor XIIa Inhibitors: Molecular Modeling, Synthesis, and Experimental Confirmation” (Molecules, 2022)
Values joined by “and” are separate entries in the source; they are usually repeats but may differ in a detail not shown here. Identical values can stand only once. Like-named read-outs stand apart in the source and are kept apart here.

Experiments:
factor XIIa [1] = molecular target: T1, factor XIIa (Homo sapiens, UniProt P00748); details: read-out: IC50 factor XIIa (aminotriazole-based inhibitors); cited from earlier work
factor XIIa [2] = molecular target: T1, factor XIIa; test: Inhibition of factor XIIa: kinetics of hydrolysis of chromogenic substrate S2302; assay type: biochemical; details: for IC50: substrate S2302, competitive inhibitor fit; for inhibition at 30 µM: read-out: Inhibition Activity at 30 µM, %; for Selectivity for factor XIIa over coagulation factors Xa and XIa: from IC50 values of Figure 5
Description: (§1) The inhibition of factor XIIa by the synthesized compounds was studied by measuring the kinetics of hydrolysis of specific substrate S2302 (Chromogenics, Italy) in the presence of these compounds. A buffer containing 140 mM NaCl, 20 mM HEPES and 0.1% PEG 6000 (pH 7.4) was placed in the wells of a 96-well plate, followed by the addition of factor XIIa (final concentration 5 nM), solution of the test compound in DMSO (final concentration 30 μM), and substrate S2302 (Chromogenics, Italy) (final concentration 200 μM). The DMSO content in the well was no more than 2%. The kinetics of the formation of pNa were measured using a THERMOmax Microplate Reader (Molecular Devices Corporation, USA) by the absorption of light with a wavelength of 405 nm. The initial rate of substrate degradation was determined from the initial slope of the pNa formation curve. The rate of substrate degradation by the enzyme in the presence of the inhibitor was expressed as a percentage relative to the rate of substrate degradation in the absence of the inhibitor. The data obtained were processed using the GraphPad Prism and OriginPro 8 software. Ratio of specific substrate cleavage (S2302 for factor XIIa and S2765 for factor Xa) rate in presence of different inhibitor concentrations to these and the cleavage rate without inhibitor were determined to calculate IC50 values. Received curves (see Figures S18–S22) were approximated with the assumption that these were competitive inhibitors.

factor Xa = factor Xa (Homo sapiens, UniProt P00742); test: Inhibition of factor Xa: cleavage rate of specific substrate S2765; assay type: biochemical; details: >30 = no activity at 30 µM, IC50 not measured
Description: as §1
(§2) Figure 5 Structures of four identified inhibitors of the coagulation factor XIIa. IC50 values are shown for three coagulation factors: Xa, XIa, and XIIa. […] So, they are marked with ‘>30’ in a column with activity values. TEXT PRINTED IN THE PICTURE: 30901: IC50, μM: XIIa 19.67±1.31; IC50, μM: XIa > 30.00; IC50, μM: Xa 12.40±0.38 | 41453: IC50, μM: XIIa 25.88±1.77; IC50, μM: XIa > 30.00; IC50, μM: Xa > 30.00 | 225006: IC50, μM: XIIa 7.85±0.34; IC50, μM: XIa > 30.00; IC50, μM: Xa > 30.00 | 225738: IC50, μM: XIIa 12.95±0.32; IC50, μM: XIa > 30.00; IC50, μM: Xa > 30.00

factor XIa = factor XIa (Homo sapiens, UniProt P03951); test: Inhibition of factor XIa (off-target selectivity testing); assay type: biochemical; details: >30 = no activity at 30 µM, IC50 not measured
Description: At the first stage, virtual screening based on docking was carried out by the SOL program and the subsequent calculation of the enthalpy of protein–ligand binding by the PM7+COSMO method for the focused library of compounds selected from the database of druglike substances of the Department of Organic Chemistry of the Voronezh State University (VSU). This library consisted of 59 compounds, which were all previously tested against coagulation factors Xa and XIa. Among them, there were a few confirmed inhibitors of these proteins with micromolar activity. The presence of inhibition data for these off-targets allowed us to use selectivity data after the screening phase and better understand the quality of the identified hit series. Screening and testing the selected compounds from the focused library also helped clarify the threshold values of the scoring function of the SOL program, the binding enthalpy and, accordingly, adjust the screening process for further iterations.Virtual screening with the SOL program was carried out for 326 three-dimensional molecules. The original base of 59 ligands was expanded taking into account a few protomers, isomers, and conformers of these molecules. At the first stage, the selection of compounds was carried out based on the SOL scoring function. […] Note that the SOL scoring value for the docking of the original ligand (PDB ID 6B74) was −5.19 kcal/mol. Thus, the selection criterion covered a wider range of scoring values.
as §2

[3] = % of enzyme inhibition at 30 µM, averaged over three measurements

T1 sequence (P00748 373-615 limits assumed, other chains not shown): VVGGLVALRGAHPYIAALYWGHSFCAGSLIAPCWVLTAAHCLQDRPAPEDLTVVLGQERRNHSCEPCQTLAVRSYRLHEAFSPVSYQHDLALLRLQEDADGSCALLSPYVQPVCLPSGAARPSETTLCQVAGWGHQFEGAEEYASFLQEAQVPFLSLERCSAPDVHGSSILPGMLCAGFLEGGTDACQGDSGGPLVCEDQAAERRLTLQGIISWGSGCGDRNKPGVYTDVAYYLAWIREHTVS
Chain of factor XIa (P03951 388-625 limits assumed): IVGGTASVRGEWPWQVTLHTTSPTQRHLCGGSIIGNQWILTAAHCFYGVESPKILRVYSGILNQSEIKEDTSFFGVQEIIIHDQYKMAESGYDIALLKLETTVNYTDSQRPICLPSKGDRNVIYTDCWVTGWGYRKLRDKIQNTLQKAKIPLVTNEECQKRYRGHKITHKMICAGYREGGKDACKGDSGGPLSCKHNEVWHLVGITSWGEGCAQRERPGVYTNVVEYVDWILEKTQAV
Chain of factor XIa (P03951 19-387 partner limits assumed): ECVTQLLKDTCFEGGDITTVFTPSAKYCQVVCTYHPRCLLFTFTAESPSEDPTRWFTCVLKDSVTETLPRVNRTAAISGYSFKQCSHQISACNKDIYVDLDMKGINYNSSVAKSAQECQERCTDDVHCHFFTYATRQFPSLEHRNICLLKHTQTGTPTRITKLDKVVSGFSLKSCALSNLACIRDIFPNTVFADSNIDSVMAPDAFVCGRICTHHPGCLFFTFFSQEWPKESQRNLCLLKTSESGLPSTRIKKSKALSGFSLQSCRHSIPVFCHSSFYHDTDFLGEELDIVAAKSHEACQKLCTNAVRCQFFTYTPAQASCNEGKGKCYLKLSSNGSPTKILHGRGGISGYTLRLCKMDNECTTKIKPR
Chain of factor Xa (P00742 235-488 limits assumed): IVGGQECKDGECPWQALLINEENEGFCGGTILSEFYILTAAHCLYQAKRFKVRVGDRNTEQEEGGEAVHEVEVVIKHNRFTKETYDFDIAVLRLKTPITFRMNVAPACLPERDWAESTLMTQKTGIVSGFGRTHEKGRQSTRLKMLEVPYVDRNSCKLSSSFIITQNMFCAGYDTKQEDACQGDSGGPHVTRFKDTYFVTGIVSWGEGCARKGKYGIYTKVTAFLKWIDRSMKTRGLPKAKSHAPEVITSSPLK
Chain of factor Xa (P00742 41-179 partner limits assumed): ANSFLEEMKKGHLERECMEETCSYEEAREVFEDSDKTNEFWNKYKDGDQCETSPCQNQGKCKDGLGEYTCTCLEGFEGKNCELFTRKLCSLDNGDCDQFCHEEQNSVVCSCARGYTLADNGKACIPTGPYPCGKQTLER

Row | Compound | IC50 (factor XIIa [2]) | IC50 (factor Xa) [µM] | IC50 (factor XIa) [µM] | inhibition at 30 µM (factor XIIa [2]; [3]) [%] | also measured
1 | Nc1nc(-c2cnc3ccccc3n2)nn1C(=O)c1cccc2ccccc12 [aminotriazole_39b] | – | – | – | – | IC50 (factor XIIa [1]): 0.007 µM
2 | COc1cc2c3c(c1)C1(C(=O)N3C(C)(C)CC2C)C(C#N)=C(N)Oc2c1c(=O)oc1ccccc21 (centres unmarked) [compound 30901, 2-amino-8’-methoxy-4’,4’,6’-trimethyl-2’,5-dioxo-5’,6’-dihydro-2’H,4’H,5H-spiro[pyrano[3,2-c]chromene-4,1’-pyrrolo[3,2,1-ij]quinoline]-3-carbonitrile] | 19.7 ± 1.31 µM | 12.4 ± 0.38 | > 30 | – | –
3 | CCc1cc2c3c(c1)C1(C(=O)N3C(C)(C)CC2C)C(C#N)=C(N)Oc2c1c(=O)[nH]c1ccccc21 (centres unmarked) [compound 38292, 2-Amino-8’-ethyl-4’,4’,6’-trimethyl-2’,5-dioxo-5,5’,6,6’-tetrahydro-4’H-spiro[pyrano[3,2-c]quinoline-4,1’-pyrrolo[3,2,1-ij]quinoline]-3-carbonitrile] | – | – | – | 10 | –
4 | COc1ccc(C2C(C#N)=C(N)Oc3c2c(=O)[nH]c2ccccc32)cc1OC (centres unmarked) [compound 38756, 2-Amino-4-(3,4-dimethoxyphenyl)-5-oxo-5,6-dihydro-4H-pyrano[3,2-c]quinoline-3-carbonitrile] | – | – | – | 15 | –
5 | CC1(C)CC2(CCCCC2)N2C(=O)C3(NCCc4c3[nH]c3ccccc43)c3cccc1c32 (stereo not drawn) [compound 41453, 6’,6’-Dimethyl-2,3,4,5’,6’,9-hexahydrodispiro[β-carboline-1,1’-pyrrolo[3,2,1-ij]quinoline-4’,1’’-cyclohexan]-2’-one] | ~26 µM and 25.9 µM | > 30 | > 30 | – | Selectivity for factor XIIa over coagulation factors Xa and XIa (factor XIIa [2]): questionable
6 | CC1CCc2nc3oc(-c4ccccc4)cc3c(N)c2C1 (centres unmarked) [compound 224530, 6-Methyl-2-phenyl-5,6,7,8-tetrahydrofuro[2,3-b]quinolin-4-amine] | – | – | – | 0 | –
7 | Nc1c2c(nc3oc(-c4ccccc4Cl)cc13)CCCC2=O [compound 224533, 4-Amino-2-(2-chlorophenyl)-7,8-dihydrofuro[2,3-b]quinolin-5(6H)-one] | – | – | – | – | inhibition at 30 µM (factor XIIa [2]): 2%
8 | COc1ccc(C(=O)c2cc3cc4c(cc3oc2=O)N(C)C(C)(C)CC4C)cc1 (centres unmarked) [compound 224870, 3-(4-Methoxybenzoyl)-6,8,8,9-tetramethyl-6,7,8,9-tetrahydro-2H-pyrano[3,2-g]quinolin-2-one] | – | – | – | 0 | –
9 | CC1CC(C)(C)N(C)c2cc3oc(=O)c(-c4cc(=O)[nH]c(N5CCOCC5)n4)cc3cc21 (centres unmarked) [compound 225006, 6,8,8,9-Tetramethyl-3-(2-morpholin-4-yl-6-oxo-1,6-dihydropyrimidin-4-yl)-6,7,8,9-tetrahydro-2H-pyrano[3,2-g]quinolin-2-one] | 7.9 µM and 7.85 µM | > 30 | > 30 | > 50 | Selectivity for factor XIIa over coagulation factors Xa and XIa (factor XIIa [2]): selectively inhibit

Continued, in another order:

Row | IC50 (factor XIIa [2]) | IC50 (factor Xa) [µM] | IC50 (factor XIa) [µM] | inhibition at 30 µM (factor XIIa [2]; [3]) [%] | Compound | also measured
10 | – | – | – | 0 | COc1cc2c3c(c1)C(=NNC(=N)N)C(=O)N3C(C)(C)C=C2C [compound 225635, 2-(8-Methoxy-4,4,6-trimethyl-2-oxo-4H-pyrrolo[3,2,1-ij]quinolin-1(2H)-ylidene)hydrazinecarboximidamide] | –
11 | – | – | – | 27 | COc1cc2c3c(c1)C(=NNC(=N)N)C(=O)N3C(C)(C)C=C2CN1CCN(c2ccc(F)cc2)CC1 [compound 225638, 2-[6-{[4-(4-Fluorophenyl)piperazin-1-yl]methyl}-8-methoxy-4,4-dimethyl-2-oxo-4H-pyrrolo[3,2,1-ij]quinolin-1(2H)-ylidene]hydrazinecarboximidamide] | –
12 | 13 ± 0.32 µM | > 30 | > 30 | > 50 | COC(=O)c1c(C)[nH]c(-c2ccccc2)c1C1C(=O)N2c3c(cc(OC)cc31)C(C)=CC2(C)C (centres unmarked) [compound 225738, methyl 4-(8-methoxy-4,4,6-trimethyl-2-oxo-1,2-dihydro-4H-pyrrolo[3,2,1-ij]quinolin-1-yl)-2-methyl-5-phenyl-1H-pyrrole-3-carboxylate] | Selectivity for factor XIIa over coagulation factors Xa and XIa (factor XIIa [2]): selectively inhibit
13 | – | – | – | 0 | COc1cc2c3c(c1)/C(=N/OC(=O)c1ccccc1)C(=O)N3C(C)(C)C=C2C [compound 225746, 8-Methoxy-4,4,6-trimethyl-4H-pyrrolo[3,2,1-ij]quinoline-1,2-dione1-(O-benzoyloxime)] | –
